Data published in patent US11793880B2, “Conjugates of quaternized tubulysin compounds” (Seagen Inc., priority 2015, dated 2023).
Where two headings read alike, the source gives them in different places.

Key:
DEL/BVR, MDR + ALCL = test system: DEL/BVR, MDR + ALCL
Experimental: (§1) In vitro assays. Cells cultured in log-phase growth were seeded for 24 h in 96-well plates containing 150 μL RPMI 1640 supplemented with 20% FBS. Serial dilutions of antibody-drug conjugates in cell culture media were prepared at 4× working concentrations; 50 μL of each dilution was added to the 96-well plates. […] After 96 h, growth inhibition was assessed by CellTiter-Glo® (Promega, Madison, WI) and luminescence was measured on a plate reader.
(§2) In vitro assays—tubulysin ADCs. ADCs were prepared by t Ell reduction of interchain disulfides to reveal 8-conjugatable cysteines/antibody that were alkylated through Michael addition with the maleimide-containing Drug Linker compounds. […] conjugates hearing quaternized tubulysin ethers with and without a PEG12 side-chain were compared to their tubulysin M analogs.
(§3) Several hydrophilic linker constructs incorporating quaternized tubulysin M were prepared and evaluated in vitro; the results are shown in Table 5. The data (IC50 values in ng/mL) indicate that Conjugates prepared from Drug Linker compounds having quaternized tubulysin M linked via a hydrophilic ValGlu dipeptide with (95) or without (91) a PEG12 side chain, or linked via a hydrophilic glucuronide (82) provide ADCs that are equipotent to the ValAla comparator (15).

DEL, ALCL = test system: DEL, ALCL
Experimental: as §1, §2, §3

L428, MDR + HL = test system: L428, MDR + HL
Experimental: as §1, §2, §3

L540cy, HL = test system: L540cy, HL
Experimental: as §1, §2, §3

[1] = test system: antigen-negative Hep3B hepatocellular carcinoma cells; details: Table 5, cAC10 ADCs 8 drugs/mAb, MDPR-Linker-TubM
Experimental: as §1, §3

Karpas299, ALCL = assay: In vitro assays - tubulysin ADCs (cAC10, anti-CD30); assay type: cell-based; details: Table 4; cAC10 ADCs DAR 8, 96 h
Experimental: In vitro assays. Cells cultured in log-phase growth were seeded for 24 h in 96-well plates containing 150 μL RPMI 1640 supplemented with 20% FBS. Serial dilutions of antibody-drug conjugates in cell culture media were prepared at 4× working concentrations; 50 μL of each dilution was added to the 96-well plates. Following addition of ADC, cells were incubated with test articles for 4 d at 37° C. After 96 h, growth inhibition was assessed by CellTiter-Glo® (Promega, Madison, WI) and luminescence was measured on a plate reader.

[2] = test system: Karpas299, L540cy, L428, DEL, DEL/BVR cell lines; assay: In vitro assays - tubulysin ADCs, statements across the cell line panel; assay type: cell-based; details: for potency relative to the ValAla comparator (15), in words: Table 5, cAC10 ADCs 8 drugs/mAb, quaternized tubulysin M
Experimental: as §1, §2, §3

[3] = Table 5, cAC10 ADCs 8 drugs/mAb, MDPR-Linker-TubM
[4] = Table 4, cAC10 ADCs DAR 8, 96 h

| SMILES | IC50, DEL/BVR, MDR + ALCL (DEL/BVR, MDR + ALCL; [3]) | IC50, DEL, ALCL (DEL, ALCL; [3]) | IC50, L428, MDR + HL (L428, MDR + HL; [3]) | IC50, L540cy, HL (L540cy, HL; [3]) | IC50, Hep3B CD30- HCC [1] | IC50, DEL/BVR, MDR + ALCL (DEL/BVR, MDR + ALCL; [4]) | IC50, L428, MDR + HL (L428, MDR + HL; [4]) | IC50, L540cy, HL (L540cy, HL; [4]) | IC50, Karpas299, ALCL (Karpas299, ALCL) | conjugate potency, in words ([2]; Table 4, cAC10 conjugates 8 drug/Ab) | potency relative to the ValAla comparator (15), in words [2] | IC50, DEL, ALCL (DEL, ALCL; [4]) |
| --- | --- | --- | --- | --- | --- | --- | --- | --- | --- | --- | --- | --- |
| CC[C@H](C)[C@H](NC(=O)[C@H]1CCCC[N+]1(C)Cc1ccc(NC(=O)[C@H](C)NC(=O)[C@@H](NC(=O)[C@H](CN)N2C(=O)C=CC2=O)C(C)C)cc1)C(=O)N(C)[C@H](C[C@@H](OC(C)=O)c1nc(C(=O)N[C@@H](Cc2ccccc2)C[C@H](C)C(=O)O)cs1)C(C)C (stereo partly drawn) [Compound 15, (2R)-2-(((2S,3S)-1-(((1R,3R)-1-acetoxy-1-(4-(((2R,4S)-4-carboxy-1-phenylpentan-2-yl)carbamoyl)thiazol-2-yl)-4-methylpentan-3-yl)(methyl)amino)-3-methyl-1-oxopentan-2-yl)carbamoyl)-1-(4-((S)-2-((S)-2-((S)-3-amino-2-(2,5-dioxo-2,5-dihydro-1H-pyrrol-1-yl)propanamido)-3-methylbutanamido)propanamido)benzyl)-1-methylpiperidin-1-ium] | 4 ng/mL | 0.3 ng/mL | 1 ng/mL | 2 ng/mL | >1000 ng/mL | – | – | – | – | – | – | – |
| CC[C@H](C)[C@H](NC(=O)[C@H]1CCCC[N+]1(C)Cc1ccc(O[C@@H]2O[C@H](C(=O)O)[C@@H](O)[C@H](O)[C@H]2O)c(NC(=O)CCNC(=O)[C@H](CN)N2C(=O)C=CC2=O)c1)C(=O)N(C)[C@H](C[C@@H](OC)c1nc(C(=O)N[C@@H](Cc2ccccc2)C[C@H](C)C(=O)O)cs1)C(C)C (stereo partly drawn) [Compound 56, (2R)-1-(3-(3-((S)-3-amino-2-(2,5-dioxo-2,5-dihydro-1H-pyrrol-1-yl)propanamido)propanamido)-4-(((2S,3R,4S,5S,6S)-6-carboxy-3,4,5-trihydroxytetrahydro-2H-pyran-2-yl)oxy)benzyl)-2-(((2S,3S)-1-(((1R,3R)-1-(4-(((2R,4S)-4-carboxy-1-phenylpentan-2-yl)carbamoyl)thiazol-2-yl)-1-methoxy-4-methylpentan-3-yl)(methyl)amino)-3-methyl-1-oxopentan-2-yl)carbamoyl)-1-methylpiperidin-1-ium] | – | – | – | – | – | 20 ng/mL | >1000 ng/mL | 10 ng/mL | 3 ng/mL | – | – | – |
| CCO[C@H](C[C@H](C(C)C)N(C)C(=O)[C@@H](NC(=O)[C@H]1CCCC[N+]1(C)Cc1ccc(O[C@@H]2O[C@H](C(=O)O)[C@@H](O)[C@H](O)[C@H]2O)c(NC(=O)CCNC(=O)[C@H](CN)N2C(=O)C=CC2=O)c1)[C@@H](C)CC)c1nc(C(=O)N[C@@H](Cc2ccccc2)C[C@H](C)C(=O)O)cs1 (stereo partly drawn) [Compound 57, (2R)-1-(3-(3-((S)-3-amino-2-(2,5-dioxo-2,5-dihydro-1H-pyrrol-1-yl)propanamido)propanamido)-4-(((2S,3R,4S,5S,6S)-6-carboxy-3,4,5-trihydroxytetrahydro-2H-pyran-2-yl)oxy)benzyl)-2-(((2S,3S)-1-(((1R,3R)-1-(4-(((2R,4S)-4-carboxy-1-phenylpentan-2-yl)carbamoyl)thiazol-2-yl)-1-ethoxy-4-methylpentan-3-yl)(methyl)amino)-3-methyl-1-oxopentan-2-yl)carbamoyl)-1-methylpiperidin-1-ium] | – | – | – | – | – | 5 ng/mL | 4 ng/mL | 5 ng/mL | 1 ng/mL | consistently more potent | – | – |
| CCO[C@H](C[C@H](C(C)C)N(C)C(=O)[C@@H](NC(=O)[C@H]1CCCC[N+]1(C)Cc1ccc(O[C@@H]2O[C@H](C(=O)O)[C@@H](O)[C@H](O)[C@H]2O)c(NC(=O)CCNC(=O)[C@H](CCCCNC(=O)CCOCCOCCOCCOCCOCCOCCOCCOCCOCCOCCOCCOC)NC(=O)[C@H](CN)N2C(=O)C=CC2=O)c1)[C@@H](C)CC)c1nc(C(=O)N[C@@H](Cc2ccccc2)C[C@H](C)C(=O)O)cs1 (stereo partly drawn) [Compound 66] | – | – | – | – | – | 6 ng/mL | 6 ng/mL | 5 ng/mL | 1 ng/mL | – | – | – |
| CCCO[C@H](C[C@H](C(C)C)N(C)C(=O)[C@@H](NC(=O)[C@H]1CCCC[N+]1(C)Cc1ccc(O[C@@H]2O[C@H](C(=O)O)[C@@H](O)[C@H](O)[C@H]2O)c(NC(=O)CCNC(=O)[C@H](CCCCNC(=O)CCOCCOCCOCCOCCOCCOCCOCCOCCOCCOCCOCCOC)NC(=O)[C@H](CN)N2C(=O)C=CC2=O)c1)[C@@H](C)CC)c1nc(C(=O)N[C@@H](Cc2ccccc2)C[C@H](C)C(=O)O)cs1 (stereo partly drawn) [Compound 67] | – | – | – | – | – | 12 ng/mL | >1000 ng/mL | 10 ng/mL | 4 ng/mL | – | – | – |
| CC[C@H](C)[C@H](NC(=O)[C@H]1CCCC[N+]1(C)Cc1ccc(O[C@@H]2O[C@H](C(=O)O)[C@@H](O)[C@H](O)[C@H]2O)c(NC(=O)CCNC(=O)[C@H](CN)N2C(=O)C=CC2=O)c1)C(=O)N(C)[C@H](C[C@@H](OC(C)=O)c1nc(C(=O)N[C@@H](Cc2ccccc2)C[C@H](C)C(=O)O)cs1)C(C)C (stereo partly drawn) [Compound 82, (2R)-2-(((2S,3S)-1-(((1R,3R)-1-acetoxy-1-(4-(((2R,4S)-4-carboxy-1-phenylpentan-2-yl)carbamoyl)thiazol-2-yl)-4-methylpentan-3-yl)(methyl)amino)-3-methyl-1-oxopentan-2-yl)carbamoyl)-1-(3-(3-((S)-3-amino-2-(2,5-dioxo-2,5-dihydro-1H-pyrrol-1-yl)propanamido)propanamido)-4-(((2S,3R,4S,5S,6S)-6-carboxy-3,4,5-trihydroxytetrahydro-2H-pyran-2-yl)oxy)benzyl)-1-methylpiperidin-1-ium] | 4 ng/mL | 0.3 ng/mL | 0.4 ng/mL | 1 ng/mL | >1000 ng/mL | 3 ng/mL | 0.5 ng/mL | 4 ng/mL | 0.6 ng/mL | – | – | – |
| CC[C@H](C)[C@H](NC(=O)[C@H]1CCCC[N+]1(C)Cc1ccc(NC(=O)[C@H](CCC(=O)O)NC(=O)[C@@H](NC(=O)[C@H](CN)N2C(=O)C=CC2=O)C(C)C)cc1)C(=O)N(C)[C@H](C[C@@H](OC(C)=O)c1nc(C(=O)N[C@@H](Cc2ccccc2)C[C@H](C)C(=O)O)cs1)C(C)C (stereo partly drawn) [Compound 91, (2R)-2-(((2S,3S)-1-(((1R,3R)-1-acetoxy-1-(4-(((2R,4S)-4-carboxy-1-phenylpentan-2-yl)carbamoyl)thiazol-2-yl)-4-methylpentan-3-yl)(methyl)amino)-3-methyl-1-oxopentan-2-yl)carbamoyl)-1-(4-((S)-2-((S)-2-((S)-3-amino-24 (2,5-dioxo-2,5-dihydro-1H-pyrrol-1-yl)propanamido)-3-methylbutanamido)-4-carboxybutanamido)benzyl)-1-methylpiperidin-1-ium] | 2 ng/mL | 0.1 ng/mL | 0.3 ng/mL | 1 ng/mL | >1000 ng/mL | – | – | – | – | – | equipotent | – |
| CC[C@H](C)[C@H](NC(=O)[C@H]1CCCC[N+]1(C)Cc1ccc(NC(=O)[C@H](CCC(=O)O)NC(=O)[C@@H](NC(=O)[C@H](CCCCNC(=O)CCOCCOCCOCCOCCOCCOCCOCCOCCOCCOCCOCCOC)NC(=O)[C@H](CN)N2C(=O)C=CC2=O)C(C)C)cc1)C(=O)N(C)[C@H](C[C@@H](OC(C)=O)c1nc(C(=O)N[C@@H](Cc2ccccc2)C[C@H](C)C(=O)O)cs1)C(C)C (stereo partly drawn) [Compound 95] | 2 ng/mL | 0.1 ng/mL | 0.2 ng/mL | 0.8 ng/mL | >1000 ng/mL | – | – | – | – | – | equipotent | – |
| CC[C@H](C)[C@H](NC(=O)[C@H]1CCCC[N+]1(C)Cc1ccc(O[C@@H]2O[C@H](C(=O)O)[C@@H](O)[C@H](O)[C@H]2O)c(NC(=O)CCNC(=O)[C@H](CCCCNC(=O)CCOCCOCCOCCOCCOCCOCCOCCOCCOCCOCCOCCOC)NC(=O)[C@H](CN)N2C(=O)C=CC2=O)c1)C(=O)N(C)[C@H](C[C@@H](OC(C)=O)c1nc(C(=O)N[C@@H](Cc2ccccc2)C[C@H](C)C(=O)O)cs1)C(C)C (stereo partly drawn) [Compound 99] | – | – | – | – | – | 2 ng/mL | 0.5 ng/mL | 2 ng/mL | 0.3 ng/mL | – | – | 1 ng/mL |
